US11401246B2, “Triazole glycolate oxidase inhibitors” (CANTERO THERAPEUTICS, INC., priority 2018, dated 2022)
pIC50: −log10 of the molar value.

Molecular target: T1, human glycolate oxidase (hGO) (Homo sapiens, UniProt Q9UJM8)
T1 construct: His-tag (6 histidines, pET-15b) (N); made in house; host or cells: E. coli BL21 (DE3)
T1 sequence (Q9UJM8 1-370): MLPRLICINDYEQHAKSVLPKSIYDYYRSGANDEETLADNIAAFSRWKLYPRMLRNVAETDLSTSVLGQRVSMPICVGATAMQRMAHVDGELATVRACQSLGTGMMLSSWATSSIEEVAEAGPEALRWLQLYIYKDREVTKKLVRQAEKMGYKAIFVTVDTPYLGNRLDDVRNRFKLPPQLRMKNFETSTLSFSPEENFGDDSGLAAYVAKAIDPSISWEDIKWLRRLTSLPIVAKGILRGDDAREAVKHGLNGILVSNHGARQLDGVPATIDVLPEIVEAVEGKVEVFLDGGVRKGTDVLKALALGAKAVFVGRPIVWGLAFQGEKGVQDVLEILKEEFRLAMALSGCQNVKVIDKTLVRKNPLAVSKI
Assay: In vitro inhibition of human glycolate oxidase (enzymatic assay, HRP-coupled Trinder reaction);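 note: values are IC50 potency bins despite the % Inhibition label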
Format: biochemical
Conditions: recombinant hGO, 40 mM glycolic acid, pH 7, read at 515 nm, 1 minute after initiation of Trinder reaction; read-out: % Inhibition
In short: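 Glyoxylate production measured indirectly: H2O2 from hGO oxidation of 40 mM glycolic acid (pH 7 phosphate, 0.1 mM EDTA) drives HRP-coupled quinoneimine dye formation, read spectrophotometrically at 1 minute. Enzyme is His-tagged human Hao1 expressed in BL21 E. coli and nickel-affinity purified.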

Row | Compound | pIC50
1 | Cc1ccc(-c2ccc(Oc3[nH]nnc3C(=O)O)cc2C)c(F)n1 [Example 78, 5-(4-(2-fluoro-6-methylpyridin-3-yl)-3-methylphenoxy)-1H-1,2,3-triazole-4-carboxylic Acid] | > 7.00
2 | O=C(O)c1nn[nH]c1Sc1ccc(-c2cccnc2F)cc1 [Example 62, 5-((4-(2-fluoropyridin-3-yl)phenyl)thio)-1H-1,2,3-triazole-4-carboxylic Acid] | 6.70 to 7.00
3 | Cc1cc(Oc2[nH]nnc2C(=O)O)ccc1-c1cccnc1F [Example 72, 5-(4-(2-fluoropyridin-3-yl)-3-methylphenoxy)-1H-1,2,3-triazole-4-carboxylic Acid] | > 7.00
4 | O=C(O)c1nn[nH]c1Oc1cccc(-c2ccc(C(F)(F)F)cc2)c1 [Example 114, 5-((4′-(trifluoromethyl)-[1,1′-biphenyl]-3-yl)oxy)-1H-1,2,3-triazole-4-carboxylic Acid] | 6.70 to 7.00
5 | CC(C)Cc1ccc(-c2ccc(Oc3[nH]nnc3C(=O)O)cc2)cc1 [Example 108, 5-((4′-isobutyl-[1,1′-biphenyl]-4-yl)oxy)-1H-1,2,3-triazole-4-carboxylic Acid] | < 6.70

Other lines, results leading:

Row | pIC50 | Compound
6 | 6.70 to 7.00 | O=C(O)c1nn[nH]c1Oc1ccc(-c2ccc3nccn3c2)cc1 [Example 27, 5-(4-(imidazo[1,2-a]pyridin-6-yl)phenoxy)-1H-1,2,3-triazole-4-carboxylic Acid]
7 | 6.70 to 7.00 | O=C(O)c1nn[nH]c1Oc1ccc(C2CCSCC2)cc1 [Example 97, 5-(4-(tetrahydro-2H-thiopyran-4-yl)phenoxy)-1H-1,2,3-triazole-4-carboxylic Acid]
8 | > 7.00 | Cc1cc(-c2ccc(Oc3[nH]nnc3C(=O)O)cc2)ccn1 [Example 81, 5-(4-(2-methylpyridin-4-yl)phenoxy)-1H-1,2,3-triazole-4-carboxylic Acid]
9 | > 7.00 | O=C(O)c1nn[nH]c1Oc1ccc(N2CCNCC2)cc1 [Example 2, 5-(4-(piperazin-1-yl)phenoxy)-1H-1,2,3-triazole-4-carboxylic Acid]
10 | > 7.00 | Cc1cc(-c2ccc(Oc3[nH]nnc3C(=O)O)cc2)cnc1F [Example 82, 5-(4-(6-fluoro-5-methylpyridin-3-yl)phenoxy)-1H-1,2,3-triazole-4-carboxylic Acid]
